# From patent US7759313B2, “Induction method for cell differentiation” (Obschetstvo S Ogranichennoi Otvetstvennostiyu …, priority 2002, dated 2010)
# Several values for one entry are separate records, joined by “and”; a condition that tells them apart may be missing. Equal values may be shown once.
# Experiments:
# human melanoma Mel-6 = assay: Inoculated human melanoma Mel-6 growth dynamics in nude mice; format: in vivo
# Experimental: The study was conducted on 10-12 week old thymus free “nude” female Balb/C mice weighting 20-22 grams (breeding of the RCRC named after N. N. Blokhin of the RAMS). The human melanoma strain Mel-6 earlier obtained from primary clinical material was taken from the bank of tumor strains of the RCRC of the RAMS for transplantation to thymus free mice.
# Dicarbamine at the single doses 1.5 mg/kg and 4.5 mg/kg was p.o. administered daily to two mice groups for 3 weeks from the moment of the tumor development (from day 15 to day 36 from the tumor transplantation).
# Measurement of the tumor was done at days 18, 25, 33, 39, 46 and 53 from the transplantation. The effect of Dicarbamine was assessed on the basis of the tumor growth dynamics for 8 weeks in multiple measurements of tumor volumes “V” according to the formula: […]
# wherein L is length in mm, s is width in mm; and h is height in mm.
# The ratio between volumes of tumors Vt/Vt−1 expressed as a percentage was then calculated and statistically processed according to the Student's method to calculate statistically significant difference.
# human M-5 melanoma cells = assay: Initial rate of cell proliferation (IRCP), M-5 cells; format: cell-based
# Experimental: The study was conducted on two continuous cell cultures growing in the form of a monolayer in a tissue culture (on murine B-16 melanoma cells and human M-5 melanoma cells). […] Dicarbamine (D) was transferred into stock solution (1.000 μM), sterilized through filters with 0.22 μm pore diameter and then diluted to concentrations 0.01 and 1.0 μM.
# The effect of preparations on cells was assessed on the basis of initial rate of cell proliferation (IRCP). This index (IRCP), which is usually called colony rate growth, was determined by numbering the number of cells in micro colonies during the first days following affection in “test” (with preparations) and “control” (without preparations) dishes, by analyzing 50 colonies in each of them. Each “point” included […] three Petri dishes with growing cell colonies in adding specific concentrations of preparations under study. Growth rate of colonies (in %) was calculated according to the formula: […]
# Cell numbers in micro colonies were calculated for every “point”. Toxicity of preparations in the selected range of concentrations was judged by cell survival, which was determined by the ratio between numbers of the colonies grown in “test” and “control” dishes.
# Friend erythroblastosis [1] = assay: Friend erythroblastosis, histological examination; format: in vivo, mice
# Experimental: (§1) Friend erythroblastosis which was inoculated subcutaneously to DBA2 female mice via spleen cells was investigated.
# (§2) Group 2—Reaferon at dose 100 thousand IU/kg was administered daily s.c. from day 3 to day 7 after inoculation;
# (§3) Group 3—Dicarbamine at a single dose 4.5 mg/kg was administered p.o. from day 3 to day 7 after inoculation;
# (§4) Group 4—Dicarbamine and Reaferon were administered simultaneously according to a similar scheme.
# (§5) Material for light microscopy was taken from sacrificed animals at days 3, 7 and 14 after termination of therapy or administration of a physiological saline. Material for electronic microscopy was taken at days 7 and 14.
# For histological examination, tumor pieces were fixed in 10% neutral formalin and imbedded into paraffin; slices obtained were stained with hematoxylin-eosin and examined for glycogen (polysaccharide) content using the periodic acid Schiff reaction, for RNA content according to Brachet, and for lipids and iron. Slices were examined and photographed using a Polivar light microscope (Austria).
# The percentage of mitoses and cells with apoptosis, as well as areas of necrosis, were assessed during histological examination.
# Friend erythroblastosis [2] = assay: Friend erythroblastosis, electronic microscopy of cell types; format: in vivo, mice
# Experimental: as §1, §2, §3, §4, §5
# For electronic microscopy, tumor pieces were fixed in a 2.5% glutaraldehyde solution and 1% osmium tetroxide and embedded in EPON-812. Semi-thin and ultra-thin slices were prepared on the LKB-III ultratome (Sweden). The obtained semi-thin slices were stained with Toluidine blue and examined through the light microscope. Ultra-thin slices were additionally stained with uranyl acetate and lead citrate; the slices examined and photographed in the JEOL 1200 EX-II electronic microscope (Japan).
# The percentage of cells with different types of differentiation (blast cells, lymphocytes and granular leukocytes) was calculated during electronic microscopy for quantitative assessment.
# [3] = Dicarbamine 4.5 mg/kg p.o. days 3-7
smiles,measurement,setting,value
O=C(O)CCCC(=O)NCCc1c[nH]cn1 [Dicarbamine],V (tumor volume) M + m,"human melanoma Mel-6; 1.5 mg/kg p.o. daily days 15-36, 18 day after inoculation",21.8 + 12.8
same,percent change in tumor volume Vt/Vt−1,"human melanoma Mel-6; 1.5 mg/kg, 18 day",100%
same,V (tumor volume) M + m,"human melanoma Mel-6; 1.5 mg/kg, 25 day",77.5 + 46.4
same,percent change in tumor volume Vt/Vt−1,"human melanoma Mel-6; 1.5 mg/kg, 25 day",302.0 ± 186.0%
same,V (tumor volume) M + m,"human melanoma Mel-6; 1.5 mg/kg, 33 day",342.0 + 142.0
same,percent change in tumor volume Vt/Vt−1,"human melanoma Mel-6; 1.5 mg/kg, 33 day",428.0 ± 313.1%
same,V (tumor volume) M + m,"human melanoma Mel-6; 1.5 mg/kg, 39 day",435.0 + 187.0
same,percent change in tumor volume Vt/Vt−1,"human melanoma Mel-6; 1.5 mg/kg, 39 day",23.2 ± 22.1%
same,V (tumor volume) M + m,"human melanoma Mel-6; 1.5 mg/kg, 46 day",662.0 + 417.0
same,percent change in tumor volume Vt/Vt−1,"human melanoma Mel-6; 1.5 mg/kg, 46 day",23.9 + 31.0%
same,V (tumor volume) M + m,"human melanoma Mel-6; 1.5 mg/kg, 53 day",783.0 + 423.0
same,percent change in tumor volume Vt/Vt−1,"human melanoma Mel-6; 1.5 mg/kg, 53 day",18.6 + 54.0%
same,V (tumor volume) M + m,"human melanoma Mel-6; 4.5 mg/kg p.o. daily days 15-36, 18 day",91.9 + 54.4
same,percent change in tumor volume Vt/Vt−1,"human melanoma Mel-6; 4.5 mg/kg, 18 day",100%
same,V (tumor volume) M + m,"human melanoma Mel-6; 4.5 mg/kg, 25 day",266.0 + 198.0
same,percent change in tumor volume Vt/Vt−1,"human melanoma Mel-6; 4.5 mg/kg, 25 day",166.0±93.0%
same,V (tumor volume) M + m,"human melanoma Mel-6; 4.5 mg/kg, 33 day",852.0 + 495.0
same,percent change in tumor volume Vt/Vt−1,"human melanoma Mel-6; 4.5 mg/kg, 33 day",276.0 ± 104.0%
same,V (tumor volume) M + m,"human melanoma Mel-6; 4.5 mg/kg, 39 day",1129.0 + 600.0
same,percent change in tumor volume Vt/Vt−1,"human melanoma Mel-6; 4.5 mg/kg, 39 day",39.8 ± 27.3%
same,V (tumor volume) M + m,"human melanoma Mel-6; 4.5 mg/kg, 46 day",1354.0 + 735.0
same,percent change in tumor volume Vt/Vt−1,"human melanoma Mel-6; 4.5 mg/kg, 46 day",19.6 ± 17.5%
same,V (tumor volume) M + m,"human melanoma Mel-6; 4.5 mg/kg, 53 day",1550.0 + 780.0
same,percent change in tumor volume Vt/Vt−1,"human melanoma Mel-6; 4.5 mg/kg, 53 day",4.2 + 22.5%
same,delay in maximum tumor mass gain in comparison with the control,human melanoma Mel-6; in vivo,7 days
same,Initial rate of cell proliferation (% cells/colony relative to the control),"human M-5 melanoma cells; D 0.01 μM, 48 hours",82.4% and 84.2%
same,Initial rate of cell proliferation,"human M-5 melanoma cells; D 0.01 μM, 72 hours",73.6%
same,Initial rate of cell proliferation,"human M-5 melanoma cells; D 0.01 μM, 96 hours",70.2%
same,Initial rate of cell proliferation,"human M-5 melanoma cells; D 1.0 μM, 48 hours",69.0%
same,Initial rate of cell proliferation,"human M-5 melanoma cells; D 1.0 μM, 72 hours",50.0%
same,Initial rate of cell proliferation,"human M-5 melanoma cells; D 1.0 μM, 96 hours",49.1%
same,Initial rate of cell proliferation,"human M-5 melanoma cells; IN 7.0 IU/ml + D 0.01 μM, 48 hours",79.1%
same,Initial rate of cell proliferation,"human M-5 melanoma cells; IN 7.0 IU/ml + D 0.01 μM, 72 hours",49.1%
same,Initial rate of cell proliferation,"human M-5 melanoma cells; IN 7.0 IU/ml + D 0.01 μM, 96 hours",46.9%
same,Initial rate of cell proliferation,"human M-5 melanoma cells; IN 7.0 IU/ml + D 1.0 μM, 48 hours",54.7%
same,Initial rate of cell proliferation,"human M-5 melanoma cells; IN 7.0 IU/ml + D 1.0 μM, 72 hours",36.9%
same,Initial rate of cell proliferation,"human M-5 melanoma cells; IN 7.0 IU/ml + D 1.0 μM, 96 hours",33.3%
same,Initial rate of cell proliferation,"human M-5 melanoma cells; IN 70.0 IU/ml + D 0.01 μM, 48 hours",40.5%
same,Initial rate of cell proliferation,"human M-5 melanoma cells; IN 70.0 IU/ml + D 0.01 μM, 72 hours",34.9%
same,Initial rate of cell proliferation,"human M-5 melanoma cells; IN 70.0 IU/ml + D 0.01 μM, 96 hours",31.0% and 31.7%
same,Initial rate of cell proliferation,"human M-5 melanoma cells; IN 70.0 IU/ml + D 1.0 μM, 48 hours",30.7%
same,Initial rate of cell proliferation,"human M-5 melanoma cells; IN 70.0 IU/ml + D 1.0 μM, 72 hours",24.0% and 24.5%
same,Initial rate of cell proliferation,"human M-5 melanoma cells; IN 70.0 IU/ml + D 1.0 μM, 96 hours",23.9%
same,toxicity according to the survival index,human M-5 melanoma cells; M-5 cells,does not show toxicity
same,Apoptosis,"Friend erythroblastosis [1]; Dicarbamine 4.5 mg/kg p.o. + Reaferon 100 thousand IU/kg s.c., day 3",0.2-0.5%
same,area of necrosis as compared to group I (control),Friend erythroblastosis [1]; [3],did not significantly change
same,mitotic activity as compared to the control,Friend erythroblastosis [1]; [3],remained within the limits of the control figures
same,area of necrosis and mitotic activity as compared to group II (Reaferon),Friend erythroblastosis [1]; Dicarbamine + Reaferon,did not show significant shifts
same,Apoptosis,"Friend erythroblastosis [1]; Dicarbamine + Reaferon, days 7 and 14",0.5%
same,decrease of the quantity of immature tumor cells vs control,Friend erythroblastosis [2]; Dicarbamine 4.5 mg/kg,15-20%
same,increase of the quantity of lymphocytes vs control,Friend erythroblastosis [2]; Dicarbamine 4.5 mg/kg,4 fold
same,number of lymphocytes,Friend erythroblastosis [2]; Dicarbamine + Reaferon,18-25%
same,quantity of large blast type cells,Friend erythroblastosis [2]; Dicarbamine + Reaferon,70-80%
same,quantity of leukocytes (granular),Friend erythroblastosis [2]; Dicarbamine + Reaferon,2-5%
same,quantity of granulocytes (granular leukocytes),Friend erythroblastosis [2]; single agent,2-5%
same,quantity of lymphocytes (lymphoid cells),Friend erythroblastosis [2]; single agent,18-25%
same,quantity of large blast type cells,"Friend erythroblastosis [2]; single agent (Dicarbamine 4.5 mg/kg p.o. or Reaferon 100 thousand IU/kg s.c., days 3-7)",70-80%
